Assay [1] concerns the target T1, mtIMPDH (Mycobacterium tuberculosis, UniProt P9WKI7). Put plainly: biochemical. Type of assay: biochemical.
The target in a further assay is hIMPDH1 (Homo sapiens, UniProt P20839). Put plainly: IMPDH inhibition assay. Conditions: hIMPDHs, isoform not specified; relative to compound 6. The format is biochemical.
The target of assay [2] is T1, mtIMPDH. Type of assay: biochemical.
Assay [3] concerns the target T1, mtIMPDH. Put plainly: biochemical.
In a further assay the test system is human-type 1 IMPDH. Particulars: cited from earlier work.
A further assay concerns human-type 2 IMPDH. Particulars: cited from earlier work.

We go through ten compounds from article PMC2903443 (Journal of medicinal chemistry, 2010).

As a reminder, the Ki is a measure of affinity in units of concentration, obtained from inhibition or displacement. Broadly, the Km is the concentration of substrate that gives half-maximal velocity.

Where two headings read alike, the source gives them in different places.

T1 sequence (P9WKI7 whole entry, looked up, canonical isoform): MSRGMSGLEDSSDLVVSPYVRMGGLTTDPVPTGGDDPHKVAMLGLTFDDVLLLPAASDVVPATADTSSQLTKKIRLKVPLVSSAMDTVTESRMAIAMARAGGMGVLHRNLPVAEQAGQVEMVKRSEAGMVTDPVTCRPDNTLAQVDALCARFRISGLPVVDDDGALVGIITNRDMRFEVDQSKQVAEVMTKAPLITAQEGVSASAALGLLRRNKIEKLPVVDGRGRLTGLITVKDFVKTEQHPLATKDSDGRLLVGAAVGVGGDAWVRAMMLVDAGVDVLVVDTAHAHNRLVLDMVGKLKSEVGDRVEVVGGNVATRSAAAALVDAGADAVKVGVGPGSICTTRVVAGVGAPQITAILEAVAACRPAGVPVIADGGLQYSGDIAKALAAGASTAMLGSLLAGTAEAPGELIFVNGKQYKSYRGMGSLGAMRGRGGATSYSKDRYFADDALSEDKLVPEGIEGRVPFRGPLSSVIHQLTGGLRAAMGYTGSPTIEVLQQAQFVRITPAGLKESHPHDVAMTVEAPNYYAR
Chain of hIMPDH1 (P20839 whole entry, canonical isoform): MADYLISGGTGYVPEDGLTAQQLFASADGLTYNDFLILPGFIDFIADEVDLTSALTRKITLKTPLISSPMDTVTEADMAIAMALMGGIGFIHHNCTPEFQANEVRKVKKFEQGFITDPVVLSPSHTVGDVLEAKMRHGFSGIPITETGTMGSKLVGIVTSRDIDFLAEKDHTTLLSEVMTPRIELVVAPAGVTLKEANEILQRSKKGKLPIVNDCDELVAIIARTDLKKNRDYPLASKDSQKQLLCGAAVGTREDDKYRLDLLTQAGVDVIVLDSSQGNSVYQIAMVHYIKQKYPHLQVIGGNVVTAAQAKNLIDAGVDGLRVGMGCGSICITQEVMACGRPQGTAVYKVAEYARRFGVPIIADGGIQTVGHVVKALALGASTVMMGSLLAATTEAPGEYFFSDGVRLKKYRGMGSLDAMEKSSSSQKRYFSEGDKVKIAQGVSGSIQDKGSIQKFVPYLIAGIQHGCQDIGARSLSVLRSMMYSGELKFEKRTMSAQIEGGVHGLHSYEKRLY

At mtIMPDH [1] (fit of Ki^app against mtIMPDH), `COc1c(C)c2c(c(O)c1C/C=C(\C)CCC(=O)O)C(=O)OC2` [Compound 1, Mycophenolic acid] displayed a Hill-slope of 1.5. Besides, the “Ki^app value against mtIMPDH with detergent” value on mtIMPDH [1] (reaction buffer containing 0.1% Trition X-100, compared with buffer without) was “not affected”.

In the case of `COc1c(C)c2c(c(O)c1CCOP(=O)(O)CP(=O)(O)OC[C@H]1O[C@@H](n3cnc4c(N)nc(-c5ccccc5)nc43)[C@H](O)[C@@H]1O)C(=O)OC2` [Compound 3b], at mtIMPDH [1], the Ki was > 100 µM.

In the case of `COc1c(C)c2c(c(O)c1C/C=C(\C)COP(=O)(O)CP(=O)(O)OC[C@H]1O[C@@H](n3cnc4c(N)ncnc43)[C@H](O)[C@@H]1O)C(=O)OC2` [Compound 4], the Ki on mtIMPDH [1] is > 100 µM.

`COc1c(C)c2c(c(O)c1CCNS(=O)(=O)CS(=O)(=O)NC[C@H]1O[C@@H](n3cnc4c(N)nc(-c5ccccc5)nc43)[C@H](O)[C@@H]1O)C(=O)OC2` [Compound 5b]: the Ki on mtIMPDH [1] was > 100 µM.

For `C#Cc1nc(N)c2ncn([C@@H]3O[C@H](CNS(=O)(=O)CS(=O)(=O)NCCc4c(O)c5c(c(C)c4OC)COC5=O)[C@@H](O)[C@H]3O)c2n1` [Compound 5c], the inhibition constant (Ki) on mtIMPDH [1] was > 100 µM.

With `CCc1nc(N)c2ncn([C@@H]3O[C@H](CNS(=O)(=O)CS(=O)(=O)NCCc4c(O)c5c(c(C)c4OC)COC5=O)[C@@H](O)[C@H]3O)c2n1` [Compound 5d], on mtIMPDH [1], the Ki was > 100 µM.

`COc1c(C)c2c(c(O)c1CCNCc1cn(C[C@H]3O[C@@H](n4cnc5c(N)ncnc54)[C@H](O)[C@@H]3O)nn1)C(=O)OC2` [Compound 6, 6-(2-(((1-(5′-Deoxy-adenosin-5′-yl)-1H-1,2,3-triazol-4-yl)methyl)amino)ethyl)-7-hydroxy-5-methoxy-4-methylisobenzofuran-1(3H)-one]: at mtIMPDH [1], the Ki was > 100 µM.

For the compound `COc1c(C)c2c(c(O)c1CCn1cc(COC[C@H]3O[C@@H](n4cnc5c(N)ncnc54)[C@H](O)[C@@H]3O)nn1)C(=O)OC2` [Compound 8, 6-(2-(4-(Adenosin-5′-yl)methyl-1H-1,2,3-triazol-1-yl)ethyl)-7-hydroxy-5-methoxy-4-methylisobenzofuran-1(3H)-one], the “fold more potent than compound 6” value on hIMPDH1 came to 10 fold. At mtIMPDH [1], the Ki was > 100 µM.

Take `COc1c(C)c2c(c(O)c1C/C=C(\C)Cn1cc(COC[C@H]3O[C@@H](n4cnc5c(N)ncnc54)[C@H](O)[C@@H]3O)nn1)C(=O)OC2` [Compound 9, 6-((E)-4-(4-(Adenosin-5′-yl)methyl-1H-1,2,3-triazol-1-yl)-3-methylbut-2-en-1-yl)-7-hydroxy-5-methoxy-4-methylisobenzofuran-1(3H)-one]: the “uncompetitive Kiu vs. IMP” value on mtIMPDH [2] (IMP varied 1.4 μM to 1 mM, NAD fixed 0.5 mM, mtIMPDH […]) worked out at 2.2 ± 0.1 µM. Besides, the “uncompetitive Kiu vs. NAD” value at mtIMPDH [2] (NAD varied 94 μM to 3 mM, IMP fixed 100 μM, mtIMPDH […]) turned out to be 1.5 ± 0.1 µM. Further, at mtIMPDH [2] (with respect to both NAD and IMP), the mode of inhibition entry is on record as “uncompetitive”. Also, the “activity against mtIMPDH (in words)” value at mtIMPDH [1] was “significant inhibition”.

On to `NC(=O)c1ccc[n+]([C@@H]2O[C@H](COP(=O)([O-])OP(=O)(O)OC[C@H]3O[C@@H](n4cnc5c(N)ncnc54)[C@H](O)[C@@H]3O)[C@@H](O)[C@H]2O)c1` [NAD, nicotinamide adenine dinucleotide], for which the Ki on mtIMPDH [3] was 5000 ± 600 µM; on human-type 1 IMPDH (read-out: Ki (NAD), ref [28]), 2000 ± 600 µM; on human-type 2 IMPDH (read-out: Ki (NAD), ref [27]), 590 ± 20 µM. Moreover, the Km with human-type 1 IMPDH (read-out: KM (NAD), ref [28]) is 70 ± 10 µM; in the assay with human-type 2 IMPDH (read-out: KM (NAD), ref [27]) it was 6 ± 1 µM.
